# Laboratory results as given in patent publication US12551463B2, “Dosing of a Bruton's tyrosine kinase inhibitor” (Loxo Oncology, Inc., priority 2019, dated 2026).
# “Also recorded” adds a separate entry of the source. Like-named read-outs stand apart in the source and are kept apart here. Marks after values point to notes of the source that are not given here.
# What was measured:
# [1] = test system: CLL/SLL, MCL, Waldenstrom's macroglobulinemia and follicular lymphoma patients; test: Human clinical trials of BTK-I: overall response rate in efficacy-evaluable patients; type: in vivo
# Experimental: (Mato A., et al., “Toxicities and Outcomes of 616 Ibrutinib-Treated Patients in the United States: A Real-World Analysis”, Haematologica, 2018, 103(5), 874-879.) Between Mar. 21, 2019 and Sep. 27, 2020, across 7 dose levels ranging from 25 mg once daily (QD) to 300 mg QD in 323 patients, the only treatment-emergent adverse events regardless of attribution or grade seen in ≥10% of patients (n=323) were fatigue (n=65, 20%), diarrhea (n=55, 17%), and contusion (n=42, 13%). In 121 efficacy-evaluable cBTKi-treated chronic lymphocytic leukemia (CLL) patients (median prior lines=4), overall response rate (ORR) was 62% (95% CI: 53-71), rising to 84% in patients followed for ≥10 months.
# [2] = Phase 1/2 clinical study: pharmacokinetics in cancer patients; type: in vivo, human; details: for half-life: read-out: T1/2 Geo mean (% CV) (converted)
# Description: The study is an open-label, multi-center study of oral BTK-I to evaluate safety and efficacy as monotherapy and as part of combination therapy in patients with CLL/SLL and NHL who have failed or are intolerant to standard of care. This study includes monotherapy as well as combination treatment parts. The monotherapy part includes Phase 1 dose escalation and dose expansion as well as Phase 2. The combination therapy part is a Phase 1b (safety assessment and expansion) of BTK-I in combination with venetoclax, with or without anti-CD20 therapy. Phase 1 dose escalation will proceed prior to start of Phase 1b or Phase 2. Once a recommended Phase 2 dose (RP2D) is identified in Phase 1, enrollment can commence to the Phase 1b combination therapies and Phase 2 monotherapy cohorts.
# BTK-I is administered in oral tablet form. Dose escalation will follow a 3+3 design starting with a 25 mg QD dose (followed by 50 mg QD (dose level cohort 2), 100 mg QD (dose level cohort 3), 150 mg QD (dose level cohort 4), 200 mg QD (dose level cohort 5), 250 mg QD (dose level cohort 6), and 300 mg QD (dose level cohort 7)). Cycle length will be 28 days. The drug limiting toxicity (DLT) period will be 28 days, commencing with the first dose of BTK-I.
# The pharmacokinetic profiles and adverse events for BTK-I doses are summarized in the below tables.
# Pharmacokinetic Parameters of BTK-I—in Cancer Patients at Steady State (Cycle 1 Day 8)
smiles,measurement,setting,value
"COc1ccc(F)cc1C(=O)NCc1ccc(-c2nn([C@@H](C)C(F)(F)F)c(N)c2C(N)=O)cc1 [BTK-I, (S)-5-amino-3-(4-((5-fluoro-2-methoxybenzamido)methyl)phenyl)-1-(1,1,1-trifluoropropane-2-yl)-1H-pyrazole-4-carboxamide]",ORR,"[1]; 52 efficacy-evaluable cBTKi-treated MCL patients, 95% CI: 38-66",52%
same,overall response rate (ORR),"[1]; 121 efficacy-evaluable cBTKi-treated CLL patients, median prior lines=4, 95% CI: 53-71",62%
same,ORR,[1]; CLL/SLL patients with BTK C481-mutant disease (17/24),71%
same,ORR,[1]; CLL/SLL patients with BTK-wildtype disease (43/65),66%
same,ORR,[1]; CLL/SLL patients with cBTKi intolerance (22/42),52%
same,ORR,[1]; CLL/SLL patients with prior cBTKi resistance (53/79),67%
same,ORR,"[1]; Waldenstrom's macroglobulinemia (WM), n=19",68%
same,overall response rate (ORR),[1]; cBTKi-treated CLL patients followed for ≥10 months,84%
same,ORR,"[1]; follicular lymphoma (FL), n=8",50%
same,responding patients who remain progression-free,[1]; of 117 responding CLL or MCL patients,all but 8
same,Ratio AUC0-8 Day 8/Day 1 Geo mean (% CV),[2]; 25 mg QD (N = 5),1.44 (23.0%)
same,CL/F Geo mean (% CV),"[2]; 25 mg QD, steady state (Cycle 1 Day 8), N = 4, % CV 69.6%",1.55^a (69.6%) L/h
same,dose dependence of exposure (Cmax and AUC),[2]; 25 mg to 300 mg daily,dose-5 dependent and linear increases in BTK-I exposure; also recorded: linear dose-proportional exposures
same,interpatient variability of exposure,[2]; 25 mg to 300 mg daily,low interpatient variability
same,Ratio AUC0-8 Day 8/Day 1 Geo mean (% CV),[2]; 50 mg QD (N = 6),1.51 (25.9%)
same,CL/F Geo mean (% CV),"[2]; 50 mg QD, steady state (Cycle 1 Day 8), N = 5, % CV 36.7%",2.62^b (36.7%) L/h
same,Ratio AUC0-8 Day 8/Day 1 Geo mean (% CV),[2]; 100 mg QD (N = 9),1.88 (42.8%)
same,CL/F Geo mean (% CV),"[2]; 100 mg QD, steady state (Cycle 1 Day 8), N = 8, % CV 63.0%",0.968^c (63.0%) L/h
same,Ratio AUC0-8 Day 8/Day 1 Geo mean (% CV),[2]; 150 mg QD (N = 20),1.74 (24.9%)
same,T1/2 Geo mean (% CV),"[2]; 150 mg QD, steady state (Cycle 1 Day 8), N = 18, % CV 51.8%",18.l^d (51.8%)
same,CL/F Geo mean (% CV),"[2]; 150 mg QD, steady state (Cycle 1 Day 8), N = 18, % CV 66.7%",1.36^d (66.7%) L/h
same,trough steady-state exposure relative to BTK IC96,[2]; 200 mg QD,BTK IC96 target coverage
same,Ratio AUC0-8 Day 8/Day 1 Geo mean (% CV),"[2]; 200 mg QD, N = 73, % CV 29.6%",1.69^h (29.6%)^
same,CL/F Geo mean (% CV),"[2]; 200 mg QD, steady state (Cycle 1 Day 8), N = 64, % CV 61.8%",1.14^e (61.8%) L/h
same,Ratio AUC0-8 Day 8/Day 1 Geo mean (% CV),[2]; 250 mg QD (N = 25),1.68 (24.5%)
same,CL/F Geo mean (% CV),"[2]; 250 mg QD, steady state (Cycle 1 Day 8), N = 21, % CV 1.08%",1.26^f (1.08%) L/h
same,Cmax Geo mean (% CV),"[2]; 250 mg QD, steady state (Cycle 1 Day 8), N=25",8100 (28.1%) ng/mL
same,Ratio AUC0-8 Day 8/Day 1 Geo mean (% CV),"[2]; 300 mg QD, N=17",2.15 (31.2%)
same,CL/F Geo mean (% CV),"[2]; 300 mg QD, steady state (Cycle 1 Day 8), N = 16, % CV 42.5%",1.63^g (42.5%) L/h
same,AUC(0-t),"[2]; human, plasma, oral, 25 mg, 25 mg QD, steady state (Cycle 1 Day 8), N=5, read-out: AUC0-8 Geo mean (% CV)",4240 ng·h/mL
same,AUC(0-t),"[2]; human, plasma, oral, 25 mg, 25 mg QD, steady state (Cycle 1 Day 8), N=5, read-out: AUC0-24 Geo mean (% CV)",9800 ng·h/mL
same,AUC(0-t),"[2]; human, plasma, oral, 50 mg, 50 mg QD, steady state (Cycle 1 Day 8), N=6, read-out: AUC0-8 Geo mean (% CV)",8660 ng·h/mL
same,AUC(0-t),"[2]; human, plasma, oral, 50 mg, 50 mg QD, steady state (Cycle 1 Day 8), N=6, read-out: AUC0-24 Geo mean (% CV)",20100 ng·h/mL
same,AUC(0-t),"[2]; human, plasma, oral, 100 mg, 100 mg QD, steady state (Cycle 1 Day 8), N=9, read-out: AUC0-8 Geo mean (% CV)",22000 ng·h/mL
same,AUC(0-t),"[2]; human, plasma, oral, 100 mg, 100 mg QD, steady state (Cycle 1 Day 8), N=9, read-out: AUC0-24 Geo mean (% CV)",52400 ng·h/mL
same,AUC(0-t),"[2]; human, plasma, oral, 150 mg, 150 mg QD, steady state (Cycle 1 Day 8), N=20, read-out: AUC0-8 Geo mean (% CV)",28000 ng·h/mL
same,AUC(0-t),"[2]; human, plasma, oral, 150 mg, 150 mg QD, steady state (Cycle 1 Day 8), N=20, read-out: AUC0-24 Geo mean (% CV)",64400 ng·h/mL
same,AUC(0-t),"[2]; human, plasma, oral, 200 mg, 200 mg QD, steady state (Cycle 1 Day 8), N=99, read-out: AUC0-8 Geo mean (% CV)",36900 ng·h/mL
same,AUC(0-t),"[2]; human, plasma, oral, 200 mg, 200 mg QD, steady state (Cycle 1 Day 8), N=99, read-out: AUC0-24 Geo mean (% CV)",91000 ng·h/mL
same,AUC(0-t),"[2]; human, plasma, oral, 250 mg, 250 mg QD, steady state (Cycle 1 Day 8), N=25, read-out: AUC0-8 Geo mean (% CV)",49700 ng·h/mL
same,AUC(0-t),"[2]; human, plasma, oral, 250 mg, 250 mg QD, steady state (Cycle 1 Day 8), N=25, read-out: AUC0-24 Geo mean (% CV)",111000 ng·h/mL
same,AUC(0-t),"[2]; human, plasma, oral, 300 mg, 300 mg QD, steady state (Cycle 1 Day 8), N=17, read-out: AUC0-8 Geo mean (% CV)",65800 ng·h/mL
same,AUC(0-t),"[2]; human, plasma, oral, 300 mg, 300 mg QD, steady state (Cycle 1 Day 8), N=17, read-out: AUC0-24 Geo mean (% CV)",158000 ng·h/mL
same,half-life,"[2]; human, plasma, oral, 25 mg QD, steady state (Cycle 1 Day 8), N = 4, % CV 60.1%",18.2 h
same,Cmax,"[2]; human, plasma, oral, 25 mg QD, steady state (Cycle 1 Day 8), N=5, read-out: Cmax Geo mean (% CV)",734 ng/mL
same,Tmax,"[2]; human, plasma, oral, 25 mg QD, steady state (Cycle 1 Day 8), N=5, read-out: Tmax Median (min, max)",2 h
same,concentration at 0 h,"[2]; human, plasma, oral, 25 mg, 0 hr, read-out: Mean patient plasma CONC (SD)",263 ng/mL
same,concentration at 1 h,"[2]; human, plasma, oral, 25 mg, 1 hr, read-out: Mean patient plasma CONC (SD)",572 ng/mL
same,concentration at 2 h,"[2]; human, plasma, oral, 25 mg, 2 hr, read-out: Mean patient plasma CONC (SD)",650 ng/mL
same,concentration at 4 h,"[2]; human, plasma, oral, 25 mg, 4 hr, read-out: Mean patient plasma CONC (SD)",538 ng/mL
same,concentration at 8 h,"[2]; human, plasma, oral, 25 mg, 8 hr, read-out: Mean patient plasma CONC (SD)",495 ng/mL
same,concentration at 24 h,"[2]; human, plasma, oral, 25 mg, 24 hr (not measured, inferred based on predose), read-out: Mean patient plasma CONC (SD)",263 ng/mL
same,half-life,"[2]; human, plasma, oral, 50 mg QD, steady state (Cycle 1 Day 8), N = 5, % CV 39.6%",17.6 h
